For orientation: IC50 means the concentration at which inhibition is half-maximal. Broadly, the inhibition is how much of the control response was suppressed.

One series has as its system MDA-MB-435. Description: Antiproliferative activity against human MDA-MB-435 cells assessed as inhibition of cell proliferation incubated for 24 hrs by MTT assay. Format: functional, cell-based. The conditions noted are these: MDA-MB-435, 24 h. A general note: Tetrazolium dyes change colour on reduction, which living cells bring about.
Series [1] concerns the target Tyrosine-protein phosphatase non-receptor type 6 (Homo sapiens, UniProt P29350). In words: Inhibition of recombinant human SHP1 expressed in Escherichia coli using pnitrophenyl phosphate as substrate preincubated for 15 mins followed by substrate addition measured after 60 mins by absorbance based assay.
Series [2] deals with T1, M-phase inducer phosphatase 2 (Homo sapiens, UniProt P30305).
T1 sequence (P30305 whole entry): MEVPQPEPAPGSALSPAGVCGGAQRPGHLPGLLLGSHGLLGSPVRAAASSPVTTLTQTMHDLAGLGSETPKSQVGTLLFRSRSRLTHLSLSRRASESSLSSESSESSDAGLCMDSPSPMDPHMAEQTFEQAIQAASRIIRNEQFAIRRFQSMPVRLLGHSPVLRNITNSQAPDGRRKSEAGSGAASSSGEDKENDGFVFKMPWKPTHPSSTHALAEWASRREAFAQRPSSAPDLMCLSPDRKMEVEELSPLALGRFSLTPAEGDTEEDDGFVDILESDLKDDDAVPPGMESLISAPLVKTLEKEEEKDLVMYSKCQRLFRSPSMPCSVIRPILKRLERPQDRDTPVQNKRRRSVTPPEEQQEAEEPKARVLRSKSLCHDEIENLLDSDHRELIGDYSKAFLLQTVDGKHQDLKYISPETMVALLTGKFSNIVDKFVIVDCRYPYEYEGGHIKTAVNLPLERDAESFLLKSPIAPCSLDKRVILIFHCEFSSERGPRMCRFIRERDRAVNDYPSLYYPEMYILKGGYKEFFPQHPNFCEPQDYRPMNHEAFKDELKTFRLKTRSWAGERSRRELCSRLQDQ
In words: Inhibition of recombinant human CDC25B expressed in Escherichia coli using pnitrophenyl phosphate as substrate preincubated for 15 mins followed by substrate addition measured after 60 mins by absorbance based assay.

Series [3] concerns the target Tyrosine-protein phosphatase non-receptor type 1 (Homo sapiens, UniProt P18031). In words: Inhibition of recombinant human PTP1B expressed in Escherichia coli using p-nitrophenyl phosphate as substrate preincubated for 15 mins followed by substrate addition measured after 60 mins by absorbance based assay.
The target of series [4] is Tyrosine-protein phosphatase non-receptor type 2 (Homo sapiens, UniProt P17706). In words: Inhibition of recombinant human TCPTP expressed in Escherichia coli using p-nitrophenyl phosphate as substrate preincubated for 15 mins followed by substrate addition measured after 60 mins by absorbance based assay.
Series [5] relates to HL-60. Description: Cytotoxicity against human HL-60 cells assessed as cell growth inhibition by MTT assay. It is filed as functional, cell-based.
Series [6] concerns A549. In words: Cytotoxicity against human A549 cells assessed as cell growth inhibition by SRB assay. Format: functional, cell-based.
The subject of series [7] is HCT-116. Description: Cytotoxicity against human HCT-116 cells assessed as cell growth inhibition incubated for 72 hrs by Cell Titer Glo assay. It is filed as functional, cell-based. The conditions noted are these: HCT-116, 72 h. A general note: Cellular ATP, detected with luciferase, serves as a proxy for viable cell number.
The nature of series [8]: Cytotoxicity against human BJ cells assessed as cell growth inhibition incubated for 72 hrs by Cell Titer Glo assay relative to control. Format: toxicity, cell-based.
Series [9] relates to HCT-116. Description: Cytotoxicity against human HCT-116 cells assessed as lethal dose. It is filed as functional. Conditions: read-out: LD50 (the source's name).
In a further series the test system is RAW264.7. Description: Inhibition of NO production in LPS-stimulated mouse RAW264.7 cells at 10 uM relative to control. Format: functional.
In series [10] the test system is HCT-116. In words: Cytotoxicity against human HCT-116 cells assessed as cell growth inhibition incubated for 72 hrs by CellTiter 96 Aqueous One Solution Cell Proliferation assay. It is filed as functional, cell-based. The conditions noted are these: HCT-116, 72 h.
For series [11], the system named is Mycolicibacterium smegmatis. In words: Antibiofilm activity against Mycobacterium smegmatis assessed as inhibition of biofilm formation incubated for 4 days. It is filed as functional. The conditions noted are these: 96 h, time 4 day.
Series [12] has as its system HL-60. In words: Cytotoxicity against human HL-60 cells assessed as cell growth inhibition. Format: functional, cell-based.
In series [13] the test system is A549. Description: Cytotoxicity against human A549 cells assessed as cell growth inhibition. Format: functional, cell-based.
The test system of the next series is L1210. In words: Antiproliferative activity against mouse L1210 cells assessed as inhibition of cell proliferation incubated for 48 hrs by Coulter counter method. Format: functional, cell-based. The conditions noted are these: L1210, 48 h.
Series [14] can be described thus: Antiproliferative activity against human IMC cells assessed as inhibition of cell proliferation incubated for 48 hrs by Coulter counter method. Format: functional, cell-based.

Converted amounts (≈) assume the structure as drawn.

Chain of Tyrosine-protein phosphatase non-receptor type 2 (P17706 whole entry): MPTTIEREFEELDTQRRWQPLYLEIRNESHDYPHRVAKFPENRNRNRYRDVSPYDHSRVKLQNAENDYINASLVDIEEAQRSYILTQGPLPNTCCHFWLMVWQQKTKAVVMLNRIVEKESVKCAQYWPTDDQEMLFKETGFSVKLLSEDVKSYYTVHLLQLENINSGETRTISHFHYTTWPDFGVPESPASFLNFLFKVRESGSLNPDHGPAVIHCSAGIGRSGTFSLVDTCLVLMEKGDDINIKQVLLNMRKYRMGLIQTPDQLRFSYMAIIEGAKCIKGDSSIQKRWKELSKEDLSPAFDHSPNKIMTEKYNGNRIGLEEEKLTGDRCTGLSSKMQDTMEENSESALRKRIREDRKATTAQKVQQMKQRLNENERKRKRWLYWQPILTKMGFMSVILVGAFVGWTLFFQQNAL
Chain of Tyrosine-protein phosphatase non-receptor type 1 (P18031 whole entry): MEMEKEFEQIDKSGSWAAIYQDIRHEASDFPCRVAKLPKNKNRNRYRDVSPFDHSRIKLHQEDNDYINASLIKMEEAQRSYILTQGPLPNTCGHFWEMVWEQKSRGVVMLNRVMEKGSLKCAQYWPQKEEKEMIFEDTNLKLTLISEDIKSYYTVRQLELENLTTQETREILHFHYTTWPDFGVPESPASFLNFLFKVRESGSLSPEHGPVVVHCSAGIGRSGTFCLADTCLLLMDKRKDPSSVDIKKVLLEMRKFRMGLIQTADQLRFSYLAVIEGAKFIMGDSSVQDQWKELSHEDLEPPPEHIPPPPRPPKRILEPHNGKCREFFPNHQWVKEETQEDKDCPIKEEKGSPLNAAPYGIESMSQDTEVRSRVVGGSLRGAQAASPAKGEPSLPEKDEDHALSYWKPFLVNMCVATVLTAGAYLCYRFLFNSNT
Chain of Tyrosine-protein phosphatase non-receptor type 6 (P29350 whole entry): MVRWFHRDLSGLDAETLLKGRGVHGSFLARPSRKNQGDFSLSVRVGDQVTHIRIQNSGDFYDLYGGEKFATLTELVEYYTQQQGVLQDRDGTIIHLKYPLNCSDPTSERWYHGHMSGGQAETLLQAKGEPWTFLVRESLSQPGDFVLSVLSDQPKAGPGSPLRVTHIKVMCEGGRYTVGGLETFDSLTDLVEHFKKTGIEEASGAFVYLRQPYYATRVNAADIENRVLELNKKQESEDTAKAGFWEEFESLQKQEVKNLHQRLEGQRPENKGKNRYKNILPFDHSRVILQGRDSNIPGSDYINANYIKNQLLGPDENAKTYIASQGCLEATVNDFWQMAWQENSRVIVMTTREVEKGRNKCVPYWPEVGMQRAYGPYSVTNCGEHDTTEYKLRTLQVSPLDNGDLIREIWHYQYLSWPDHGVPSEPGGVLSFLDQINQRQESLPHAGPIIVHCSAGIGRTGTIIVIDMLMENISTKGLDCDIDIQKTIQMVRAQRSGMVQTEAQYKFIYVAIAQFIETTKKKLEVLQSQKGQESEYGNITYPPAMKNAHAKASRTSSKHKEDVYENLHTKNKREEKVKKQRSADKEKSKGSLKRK

`COC(=O)N[C@H]1[C@@H](C)O[C@@H](O[C@H]2C/C=C(\C)[C@]3(C)CC[C@@H]4[C@@H](O[C@H]5C[C@@H](O[C@H]6C[C@@H](O)[C@@H](O[C@@H]7C[C@@H](O)[C@@H](OC)[C@H](C)O7)[C@H](C)O6)C[C@H](C)O5)[C@@H](C)C[C@H](C)[C@H]4[C@]3(C)C(=O)C3C(=O)OC4(C[C@@H](C)C(CO)=C[C@H]4/C=C/2C)C3=O)C[C@]1(C)N` (some centres not stated): the IC50 in the series on MDA-MB-435 amounted to 7.5 µM.

Take `COC(=O)[C@@]12C(=O)[C@@](C)(O)[C@]1(C)C(C)=C[C@H]1[C@]34CC[C@H](OC(C)=O)C(C)(C)[C@H]3[C@H](C[C@@]12C)OC4=O`: the IC50 stood at 34 µM in [1] and 19 µM in [2].

For the molecule `CC1(C)Oc2c(nc3c4c2C(=O)CC[C@]4(C)[C@@]2(C)c4[nH]c5ccccc5c4C[C@@H]2C3)[C@H]1O`, the IC50 in series [3] and in series [4] was 1.7 µM in each case.

With `CO[C@]12C=C3[C@@H]4O[C@@H]4[C@H](OC(C)=O)[C@H](C)[C@@]3(C)C[C@]13O[C@]3(C)CO2`, the 50% inhibitory concentration (IC50) in the series on HL-60 [5] turned out to be 28.3 µM; in the series with A549 [6] it was 5.2 µM.

As for `CC1(C)CCC[C@]2(C)[C@H]3Cc4c(c(O)c(O)c5nc(C(=O)O)ccc45)O[C@]3(C)CC[C@@H]12`, in the series on HCT-116 [7], the half-inhibitory concentration (IC50) was 10 µM. Besides, the inhibition at 72 h in series [8] was determined as 43%.

With `COc1cc(OC)c2c(c1)[C@H]([C@H](O)/C=C(\C)CC[C@@H]1C(C)=CC[C@@H]3C(C)(C)CCC[C@@]13C)CCC2=O`, the CC50 with HCT-116 [9] came to 2 µg/mL (≈ 4.04 µM).

Molecule `CC1=CC(=O)C[C@@]2(C)CC[C@@H](C(C)CO)C[C@H]12` (some centres not stated) displayed an inhibition at 10 µM in the series on RAW264.7 of 22.5%.

For the molecule `C=C1CC[C@H](Cl)C(C)(C)[C@@H]1C[C@@]12OC(C)(C)[C@H](Cl)C[C@@]1(Cl)C(=O)c1c(cc(O)c(C)c1O)C2=O`, the IC50 with HCT-116 [10] came out at 3 µM.

Take `CC(C)=C/C=C\[C@H](C)[C@H]1CC[C@]2(C)C[C@@H]3C(C)=CC(=O)[C@@H]3/C(C=O)=C\C[C@@H]12`: the MIC in series [11] is 6.23 µg/mL (≈ 17 µM).

Take `CC(C)(O)[C@H]1OC2CC[C@@]3(C)[C@@](O)(CC[C@H]4C[C@]5(OCNc6ccccc65)C(=O)[C@@]43C)C2=CC1=O` (some centres not stated): the IC50 in series [3] and in series [4] was 1.7 µM each time.

On to `CC1(C)CCC[C@@](C)(c2ccc(CO)cc2O)O1`, for which the concentration for half-maximal inhibition (IC50) in the series on HL-60 [12] and with A549 [13] was over 50 µg/mL each time.

For `COC(=O)[C@@]12C(=O)[C@](C)(O)C(=O)[C@@H](C(C)=C1C)C1[C@]2(C)C[C@@H]2OC(=O)[C@]13CC[C@H](OC(C)=O)C(C)(C)[C@@H]23` (some centres not stated), the values for the IC50 in series [1] and in series [2] were 22 µM and 20 µM, respectively.

Regarding `CC(C)=C/C=C\[C@H](C)[C@H]1CC[C@]2(C)C[C@H]3[C@H](C(=O)C[C@@]3(C)O)/C(C=O)=C\C[C@@H]12`, the MIC in series [11] amounted to 25 µg/mL (≈ 64.9 µM).

Regarding `CN1C=C(C(N)=O)[C@@H]2C[C@H](O)[C@@](NC(=O)CS(N)(=O)=O)(C(=O)O)[C@@H]2C1`, the values for the IC50 (in the series on L1210; in series [14]) were 0.84 µM and 0.82 µM, respectively.

Source of the values: ChEMBL document CHEMBL5104094, “Chemistry, biosynthesis and biological activity of terpenoids and meroterpenoids in bacteria and fungi isolated from different marine habitats” (Eur J Med Chem, 2021).
